Results reported in ChEMBL document CHEMBL1136475, “Synthesis and analgesic activity of hydrochlorides and quaternary ammoniums of epibatidine incorporated with amino acid ester” (Bioorg Med Chem Lett, 2003).

Legend:
[1] = molecular target: Neuronal acetylcholine receptor; test: Binding affinity towards nicotinic acetylcholine receptor (nAChR); type: protein-complex assay
[2] = Toxicity in rats was determined by sc administration at a dose of 10 mg/kg; type: organism-based; parameters: dose 10 mg/kg, route subcutaneous; settings: rat, in vivo, read-out: Rate of death
Mus musculus [3] = test: In vivo analgesic activity using acetic acid writhing test in mice at a dose of 20 mg/kg by sc administration; type: functional; settings: route subcutaneous
Mus musculus [4] = test: In vivo analgesic activity using acetic acid writhing test in mice at a dose of 10 mg/kg by sc administration; type: functional; settings: route subcutaneous
Mus musculus [5] = test: In vivo analgesic activity using acetic acid writhing test in mice at a dose of 1 mg/kg by sc administration; type: functional; settings: route subcutaneous
Mus musculus [6] = test: In vivo analgesic activity using acetic acid writhing test in mice at a dose of 5 mg/kg by sc administration; type: functional; settings: route subcutaneous
[7] = Toxicity in rats was determined by sc administration at a dose of 1 mg/kg; type: organism-based; parameters: dose 1 mg/kg, route subcutaneous; settings: rat, in vivo, read-out: Rate of death
[8] = Toxicity in rats was determined by sc administration at a dose of 5 mg/kg; type: organism-based; parameters: dose 5 mg/kg, route subcutaneous; settings: rat, in vivo, read-out: Rate of death
[9] = Toxicity in rats was determined by sc administration at a dose of 20 mg/kg; type: organism-based; parameters: dose 20 mg/kg, route subcutaneous; settings: rat, in vivo, read-out: Rate of death

| Structure (SMILES) | Inhibitory rate (Mus musculus [3]) | mortality [9] | other results |
| --- | --- | --- | --- |
| c1cncc(CN2C3CCC2CC3)c1 | – | – | Ki [1]: 0.098 µM |
| CCOC(=O)CCC(NC(=O)C1C(c2ccc(Cl)nc2)C2CCC1[N+]2(C)Cc1ccccc1)C(=O)OCC.[I-] (configuration not stated) | 1% | – | mortality [2]: 80%; Inhibitory rate (Mus musculus [4]): 99.3% |
| CCOC(=O)C1CSCN1C(=O)C1C(c2ccc(Cl)nc2)C2CCC1[N+]2(C)Cc1ccccc1.[I-] (configuration not stated) | – | – | Inhibitory rate (Mus musculus [5]): 9.1%; Inhibitory rate (Mus musculus [6]): 49.8%; mortality [7]: 0%; mortality [8]: 0% |
| CCOC(=O)CNC(=O)C1C(c2ccc(Cl)nc2)C2CCC1[N+]2(C)Cc1ccccc1.[I-] (configuration not stated) | 66.6% | 0% | – |
| C[N+]1(Cc2ccccc2)CCN(C(=O)CCCCCCC(=O)N2CC[N+](C)(Cc3ccccc3)CC2)CC1.[Br-].[Br-] | 80.3% | – | – |
| CCOC(=O)CCC(NC(=O)C1C(c2ccc(Cl)nc2)C2CCC1N2Cc1ccccc1)C(=O)OCC.Cl (configuration not stated) | 27.1% | 0% | – |
| CCOC(=O)CNC(=O)C1C(c2ccc(Cl)nc2)C2CCC1N2Cc1ccccc1.Cl (configuration not stated) | 26.1% | 0% | – |
| CCOC(=O)C1CSCN1C(=O)C1C(c2ccc(Cl)nc2)C2CCC1N2Cc1ccccc1.Cl (configuration not stated) | 12.3% | 0% | – |
